# Key:
# [1] = test system: rats exposed to hyperoxia (>98% O2); assay: Survival of rats in lethal hyperoxia in the presence of CO; type: in vivo, rat; settings: for % Survival 72 h / % Survival 100 h: hyperoxia (>98%)
# Excerpt: Pathogen-free male Sprague-Dawley rats (250-300 g) were purchased from Harlan Sprague-Dawley (Indianapolis, Ind.) and allowed to acclimate upon arrival for 7 days prior to experimentation. Animals were fed rodent chow and water ad libitum. All experimental protocols were approved by the Animal Care and Use Committee.
# Animals were exposed to >98% O2 or 98% O2+CO mixtures at a flow rate of 12 liters/min in a 3.70-cubic-foot glass exposure chamber. Animals were supplied food and water during the exposures. CO at a concentration of 1% (10,000 ppm) in compressed air was mixed with >98% O2 in a stainless steel mixing cylinder prior to entering the exposure chamber. By varying the flow rates of CO into the mixing cylinder, concentrations delivered to the exposure chamber were controlled. Because the flow rate was primarily determined by the O2 flow, only the CO flow was changed to generate the different concentrations delivered to the exposure chamber. A carbon monoxide analyzer (Interscan Corporation, Chatsworth, Calif.) was used to measure CO levels continuously in the chamber. Gas samples were taken by the analyzer through a port in the top of the exposure chamber at a rate of 1 liter/min and analyzed by electrochemical detection with a sensitivity of 10 ppm to 600 ppm. CO levels in the chamber were recorded at hourly intervals and there were no changes in chamber CO concentrations once the chamber had equilibrated. O2 concentrations in the chamber were determined using a gas spectrometer.
# We used clinically relevant in vivo models of oxidative stress to test the hypothesis that CO mediates the protective effects of HO-1 against oxidative stress. Hyperoxia when administered to animals produces pathophysiologic changes similar to those seen in human adult respiratory distress syndrome (ARDS) (Lee, et al., Am. J. Resp Cell Mol Biol. 14: 556-568; and Clerch, and Massaro, J. Clin. Invest. 91: 499-1508). […] These rats will uniformly die by 72 h of continuous hyperoxic exposure (Lee, et al. and Clerch, supra). In this study, one group of rats were placed in hyperoxia (>98% oxygen O2) alone while the second group of rats were placed in an identical chamber and exposed to the same levels of hyperoxia in the presence of a low concentration of CO (250 ppm). […] We observed concentration dependent protection against hyperoxia at both 72 and 100 h of hyperoxia exposure (Table 1). (P-value for the association between survival and CO concentration is 0.001 by logistic regression). Carboxyhemoglobin levels, a standard measurement of CO levels in the blood, correlated with increasing concentrations of CO exposure and survival of animals to lethal hyperoxia (Table 1, below).
# [2] = test system: mice given LPS (wild type); assay: LPS-induced serum cytokines in mice exposed to CO; type: in vivo, mouse
# Excerpt: Animals. Male C57BL/6 and IL-10 (−/−) mice were purchased from Jackson Laboratory (Bar Harbor, Me.), and allowed to acclimate for one week with rodent chow and water ad libitum. The MKK (−/−) mice were generated as previously described [Lu, et al., EMBO J. 18:1845-1857 (1999)]. Wild type littermates were used as controls. All animals were housed in accordance with guidelines from the American Association for Laboratory Animal Care and Research Protocols and were approved by the Animal Care and Use Committee of Yale University School of Medicine. Reagents. All reagents were purchased from Sigma Chemical Co. (St Louis, Mo.) unless specified otherwise. Plasmid Construct. Plasmid pSFFV/HO-1 was constructed by insertion of the rat HO-1 cDNA [Shibahara, et al., Proc. Natl. Acad. Sci. USA. 82: 7865-7869 (1985)] downstream of the Friend spleen focus-forming virus 5′ long-terminal repeat in the mammalian expression vector pSFFV/neo [Fuhlbrigge, et al, Proc. Natl. Acad. Sci. USA. 85: 5649-5653 (1988)] (kindly provided by Stanley Korsmeyer). Transfection. Stable transfections were carried out by the calcium phosphate precipitation technique as previously described [Alam, J., J. Biol. Chem. 269: 25049-25056 (1994)]. Briefly, RAW cells were plated (1×10^6/10 cm plate) and 16 h later, transfected with […] of pSFFV/neo or pSFFV/HO-1. Cells were exposed to the DNA-CaPO4 precipitate for 6 h, shocked by a 1 min treatment with glycerol in phosphate-buffered saline and cultured for an additional 24 h in complete medium before addition of G418. Transfectants were selected over a 3-week period in the presence of G418 (up to […]) and individual clones were isolated by limited dilution. Cell Culture Experimentation. RAW 264.7 mouse peritoneal macrophages were purchased from […] (Rockville, Md.) and primary culture of rat pulmonary vascular smooth muscle cells were harvested from male Sprague Dawley rats (250-300 g) as previously described [Gunther, et al., J. Cell. Biol. 92: 289-298 (1982).]. Both cell types were grown in DMEM containing 10% FBS and gentamicin ([…]) in a humidified atmosphere of 5% CO2/balanced air or 250 ppm CO/5% CO2/balanced air. After a 2 h pretreatment with either CO or air, LPS ([…]) or sterile saline was added to the culture media and the culture plates were returned to the chamber(s). At various time points, cell plates were removed from the chamber to collect media and/or cells for Western analysis. CO Exposures. Mice or macrophages were exposed to compressed air or 250 ppm CO. For cell culture experiments, 5% CO2 was also present for buffering requirements. CO at a concentration of 1% (10,000 ppm) in compressed air was mixed with compressed air with or without CO2 in a stainless steel mixing cylinder before delivery into the exposure chamber. Flow into the 3.70-ft^2 plexiglass animal chamber was maintained at 12 L/min and into the 1.2 ft^2 cell culture chamber at a flow of 2 L/min. The cell culture chamber was humidified and maintained at 37° C. A CO analyzer (Interscan, Chatsworth, Calif.) was used to measure CO levels continuously in the chambers. Gas samples were taken by the analyzer through a port in the top of the chambers at a rate of 1 L/min and analyzed by electrochemical detection, with a sensitivity of 10-600 ppm. Concentration levels were measured hourly and there were no fluctuations in the CO concentrations once the chamber had equilibrated (approximately 5 min). Animal Experimentation. Mice were prebled from the retroorbital sinus (0.25 ml) and then exposed to CO (250 ppm) or room air for 1 h prior to administration of LPS (1 mg/kg, i.p.), E. coli serotype O127:B8. 1 and 16 h thereafter, they were removed from the exposure apparatus individually and a blood sample was obtained via the retroorbital sinus. After the blood collection, the mice were immediately returned to the exposure chamber. […]
structure (smiles),measurement,setting,value
"[C-]#[O+] [CO, carbon monoxide]",survival in hyperoxia,"[1]; hyperoxia (>98% O2), CO 250 ppm, 72 h",all animals were alive at the 72 h time point
same,% Survival 72 h,"[1]; CO 50 ppm, 72 h",33%
same,% Survival 100 h,[1]; CO 50 ppm,0%
same,% Survival 72 h,"[1]; CO 100 ppm, 72 h",50%
same,% Survival 100 h,[1]; CO 100 ppm,50%
same,% Survival 72 h,"[1]; CO 250 ppm, 72 h",100%
same,% Survival 100 h,[1]; CO 250 ppm,80%
same,% Survival 72 h,"[1]; CO 500 ppm, 72 h",100%
same,% Survival 100 h,[1]; CO 500 ppm,80%
same,TNF-α or IL-10 production without LPS,"[2]; CO (250 ppm) alone, MKK3(−/−) or wild type(+/+) mice",no effect
same,IL-10 in response to LPS in vivo,"[2]; LPS 1 mg/kg, mice, CO 250 ppm",augmentation
same,EC50 for attenuation of LPS-induced TNF-α production in vivo,"[2]; LPS 1 mg/kg, mice, dose-dependent",69.9 ppm
same,LPS-induced TNF-α production in vivo,"[2]; LPS 1 mg/kg, mice, in the presence of CO",significant attenuation
same,inhibition at 250 ppm,"[2]; Mus musculus, wild type controls, LPS, CO 250 ppm, 1 h, read-out: inhibition of serum TNF-α levels",73%
same,LPS-induced serum TNF-α production,"[2]; wild type(+/+) littermates, LPS 1 mg/kg, 250 ppm CO",attenuated levels
same,LPS-induced IL-10 levels,"[2]; wild type(+/+) mice, LPS 1 mg/kg, 250 ppm CO",augmented
